Earlier results, collected in patent US7476665B2, “Benzodiazepine CGRP receptor antagonists” (Merck & Co., Inc., priority 2003, dated 2009).
Where two headings read alike, the source gives them in different places. Where no end group is shown, it is not given here.

How the values were obtained:
facial blood flow [1] = conditions: marmoset, electrical stimulation of the trigeminal ganglion (Doods et al. 2000)
middle meningeal artery = conditions: rats, electrical stimulation of the dura mater, prior administration (Williamson et al. 1997)
facial blood flow [2] = conditions: rat, trigeminal ganglion stimulation (Escott et al. 1995)

| Compound | effect on increase of facial blood flow (facial blood flow [1]) | effect on increase of middle meningeal artery diameter (middle meningeal artery) | effect on increase of facial blood flow (facial blood flow [2]) |
| --- | --- | --- | --- |
| NCCCC[C@H](NC(=O)[C@@H](Cc1cc(Br)c(O)c(Br)c1)NC(=O)N1CCC(N2Cc3ccccc3NC2=O)CC1)C(=O)N1CCN(c2ccncc2)CC1 [BIBN4096BS] | blocked | – | – |
| CGRP(8-37): a peptide CGRP antagonist (VTHRLAGLLSRSGGVVKNNFVPTNVGSKAF; ends and bridges not checked; UniProt P06881 90-119, looked up, fragment) | – | blocked | inhibited |
